# According to patent publication US20230301981A1, “TLR7/8 ANTAGONISTS AND USES THEREOF” (Merck Patent GmbH, priority 2020, published 2023):
# Legend:
# Format in all cases: cell-based
# TLR8 = target: T1, TLR8 (Homo sapiens, UniProt Q9NR97); test: Human whole blood assay, TLR8-specific agonist stimulation, IL-6 by AlphaLISA; conditions: TLR8-specific agonist 0.5 µM, IL-6 readout, read-out: IC50 TLR8 (IL6 READOUT) HUMAN WHOLE BLOOD (N=2)
# T1 construct: Human whole blood from healthy donors was drawn into EDTA Vacutainer tubes; endogenous in cells; host or cells: human whole blood (healthy donors)
# T1 sequence (Q9NR97 27-1041): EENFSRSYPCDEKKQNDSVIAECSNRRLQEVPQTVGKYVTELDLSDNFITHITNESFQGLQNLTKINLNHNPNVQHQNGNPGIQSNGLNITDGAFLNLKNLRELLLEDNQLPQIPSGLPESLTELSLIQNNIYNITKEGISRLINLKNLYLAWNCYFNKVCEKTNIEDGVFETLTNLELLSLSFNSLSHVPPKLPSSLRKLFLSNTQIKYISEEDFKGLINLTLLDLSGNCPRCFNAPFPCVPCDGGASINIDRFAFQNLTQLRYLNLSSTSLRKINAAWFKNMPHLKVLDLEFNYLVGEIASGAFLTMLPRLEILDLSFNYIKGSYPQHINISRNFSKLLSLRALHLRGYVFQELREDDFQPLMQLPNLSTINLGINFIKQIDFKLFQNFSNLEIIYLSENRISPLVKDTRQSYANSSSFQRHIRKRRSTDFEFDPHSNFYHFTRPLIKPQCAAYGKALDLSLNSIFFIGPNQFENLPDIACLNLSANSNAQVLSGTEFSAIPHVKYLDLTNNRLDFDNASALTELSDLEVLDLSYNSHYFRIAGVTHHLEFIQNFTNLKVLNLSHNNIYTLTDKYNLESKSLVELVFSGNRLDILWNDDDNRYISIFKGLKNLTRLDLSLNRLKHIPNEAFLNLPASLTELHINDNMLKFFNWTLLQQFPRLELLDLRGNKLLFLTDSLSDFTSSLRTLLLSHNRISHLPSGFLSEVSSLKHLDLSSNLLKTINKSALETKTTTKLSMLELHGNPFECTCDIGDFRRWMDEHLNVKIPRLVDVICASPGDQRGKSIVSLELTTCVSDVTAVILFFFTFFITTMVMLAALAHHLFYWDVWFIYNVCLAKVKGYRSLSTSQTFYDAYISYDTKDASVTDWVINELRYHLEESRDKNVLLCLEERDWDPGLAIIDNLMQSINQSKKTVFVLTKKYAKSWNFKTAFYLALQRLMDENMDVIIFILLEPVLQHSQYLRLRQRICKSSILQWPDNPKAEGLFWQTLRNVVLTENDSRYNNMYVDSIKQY
# Description: (§1) Human whole blood from healthy donors was drawn into EDTA Vacutainer tubes and the experiment started within 2 hr of draw. Four parts blood was diluted with 1 part PBS. 10 mM compounds stock solutions were serially diluted 1:3 eleven times in DMSO. Each serial dilution was further diluted by transferring 3 µl to 100 µl RPMI. For the stimulation only and no stimulation controls, 3 µl 100% DMSO was transferred to 100 µl RPMI. Then, 5 µl of each of these dilutions were transferred to 96-well tissue culture grade U-bottom plate in triplicate for each ligand and each donor. Final inhibitor concentrations were 10, 3.3, 1.1, 0.37, 0.12, 0.04, 0.014, 0.0046, 0.0015, 0.00051, 0.00017, 0.00006 µM. No inhibitor (stimulation only) controls were included in triplicate for each donor. Diluted blood was dispensed on top of inhibitor dilutions at 150 µl/well. Plates were incubated at 37° C. 5% CO2 for 30 min. For TLR7 stimulation, 10 mM stock of a TLR7-specific small molecule agonist in DMSO was diluted to 90 µM in RPMI and 5 µl were added to each inhibitor dilution for each donor. Final concentration was 3 µM. For TLR8 stimulation, 10 mM stock of a TLR8-specific small molecule agonist in DMSO was diluted to 15 µM in RPMI and 5 µl were added to each inhibitor dilution for each donor. Final concentration was 0.5 µM. No stimulation controls were included in triplicate for each donor. Plates were incubated at 37° C. 5% CO2 overnight. Next day, plasma was collected and IL-6 was measured by AlphaLISA (PerkinElmer AL223 according to manufacturer’s protocol.
# TLR7 [1] = target: T2, TLR7 (Homo sapiens, UniProt Q9NYK1); test: Human whole blood assay, TLR7-specific agonist stimulation, IL-6 by AlphaLISA; set-up: Human whole blood from healthy donors was drawn into EDTA Vacutainer tubes; endogenous in cells; host or cells: human whole blood (healthy donors); conditions: TLR7-specific agonist 3 µM, IL-6 readout, read-out: IC50 TLR7 (IL6 READOUT) HUMAN WHOLE BLOOD (N=2)
# T2 sequence (Q9NYK1 27-1049): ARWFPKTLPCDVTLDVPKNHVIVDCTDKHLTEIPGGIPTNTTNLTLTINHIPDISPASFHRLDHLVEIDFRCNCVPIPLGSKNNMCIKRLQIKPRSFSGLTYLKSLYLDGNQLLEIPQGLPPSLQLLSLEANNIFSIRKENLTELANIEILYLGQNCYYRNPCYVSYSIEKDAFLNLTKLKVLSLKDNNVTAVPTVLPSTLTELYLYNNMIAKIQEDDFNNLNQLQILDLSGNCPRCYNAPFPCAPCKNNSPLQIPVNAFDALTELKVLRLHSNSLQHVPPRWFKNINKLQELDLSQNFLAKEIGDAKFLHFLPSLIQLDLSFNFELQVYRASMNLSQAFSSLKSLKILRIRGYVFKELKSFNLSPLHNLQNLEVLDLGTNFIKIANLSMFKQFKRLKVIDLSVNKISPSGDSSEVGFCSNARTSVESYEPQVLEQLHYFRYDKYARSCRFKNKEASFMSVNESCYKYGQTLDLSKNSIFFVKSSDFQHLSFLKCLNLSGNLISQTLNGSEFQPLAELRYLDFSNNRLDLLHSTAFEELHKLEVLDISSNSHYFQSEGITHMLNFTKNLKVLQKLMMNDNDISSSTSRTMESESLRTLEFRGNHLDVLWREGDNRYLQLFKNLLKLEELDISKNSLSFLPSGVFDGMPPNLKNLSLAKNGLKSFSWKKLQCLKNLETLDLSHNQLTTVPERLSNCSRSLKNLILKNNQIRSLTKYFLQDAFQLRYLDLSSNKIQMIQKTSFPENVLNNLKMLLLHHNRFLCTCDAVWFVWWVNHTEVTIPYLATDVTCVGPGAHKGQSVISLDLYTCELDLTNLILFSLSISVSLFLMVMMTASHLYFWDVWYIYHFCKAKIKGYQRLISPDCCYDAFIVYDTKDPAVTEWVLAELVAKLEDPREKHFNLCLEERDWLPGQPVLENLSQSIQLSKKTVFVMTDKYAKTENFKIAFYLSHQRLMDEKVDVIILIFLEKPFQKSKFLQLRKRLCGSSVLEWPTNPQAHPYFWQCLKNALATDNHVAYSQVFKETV
# Description: as §1
# TLR7 [2] = target: T2, TLR7; test: HEK293 TLR7/NFKb reporter cell assay with R848 agonist; set-up: expressed in transfected cells; host or cells: HEK293
# Description: Into 384 CulturePlates (Corning 3707) was placed 5000 c/w of HEK293 TLR7/NFKb reporter cells in 30 µL DMEM without phenol red and 10% i.a. FCS and 2 mM L-glutamine. The cells were incubated for 24 h at 37° C., 10% carbon dioxide and 90% relative humidity. 3 µL of controls, standards, and compounds were dispensed to wells, incubated for 30 min then 3 µL of R848 agonist (Resiquimod) in 20 mM HEPES buffer was added. After incubation for 5 hours, it was allowed to stand at room temperature for 15 min. 10 µL of Steady-Glo substrate reagent was added and assay plates were shaken for 5 min at 1500 rpm. The assay plate was allowed to sit for 30 min at room temperature and then read on an EnVision plate reader.
# [3] = Example 4 results table, assay/readout not specified, read-out: Potency
# [4] = HEK293 TLR7/NFKb reporter cells, R848 agonist, read-out: IC50 TLR7 (IL6 READOUT) HEK TRANSFECTED
SMILES,IC50 (TLR8),IC50 (TLR7 [1]),IC50 (TLR7 [2]; [3]),IC50 (TLR7 [2]; [4])
"CCN(CC)CCCC(C)Nc1ccnc2cc(Cl)ccc12 (stereo not shown) [CHLOROQUINE, Chloroquine]",53300 nM,2280 nM,,
"Oc1c(CN2CCCC2)cc(Nc2ccnc3cc(Cl)ccc23)cc1CN1CCCC1 [Compound 3, BISPYROQUINE]",,,< 1000 nM,4590 nM
CCN(CC)Cc1cc(Nc2ccnc3cc(Cl)ccc23)ccc1O [AMODIAQUINE],,,,> 10000 nM
"CCN(CC)Cc1cc(Nc2ccnc3cc(Cl)ccc23)cc(CN(CC)CC)c1O [Compound 2, CYCLOQUINE]",,,< 1000 nM,1390 nM
